In patent US5545669A, “Anti-inflammatory compounds” (priority 1994, dated 1996):
pIC50: −log10 of the molar value.

Columns and labels:
[1] = system: PGE2 release by human monocytes; assay: Assay (f): stimulated eicosanoid release by human monocytes, Prostaglandin E2; assay type: cell-based; conditions: Monocyte, 0.25 h, A23187 1 μM, 15 min
Protocol: (§1) Human Monocyte Isolation. Leukocyte-rich leukopaks obtained from Biological Specialties (Lansdale, Pa.) were collected from male volunteers who were not taking antiinflammatory drugs. Leukopaks were centrifuged (90×g for 15 min) twice to remove the platelet-rich plasma. The cell pellet was washed by centrifugation and resuspended in HBSS without Ca^2+ or Mg^2+. Histopaque 1077 was layered under the cell suspension and centrifuged at 400×g for 30 min to obtain the buffy coat. The interfacial buffy coat, containing monocytes and lymphocytes, was removed and saved. The buffy coat was washed twice with HBSS Without Ca^2+ or Mg^2+ by centrifugation. The cell pellet (4-6×10^8 cells/30 mls) was resuspended in iso-osmotic media (RPMI-1640, 10% heat inactivated fetal bovine serum (FBS), 0.2 mM L-glutamine, 2.5 mM HEPES) and layered over an equal volume of 46% Percol mixture (10X PBS/Percol; 9.25/0.75) and 54% iso-osmotic media and centrifuged for 30 min at 1000×g (Marshall and Roshak, Biochem. Cell Biol. 71: 331-339, 1993). The monocyte population located at the interface of the Percoll gradient was removed and washed twice in HBSS without Ca^2+ or Mg^2+.
(§2) Measurement of Stimuli-Induced Eicosanoid Release Monocytes (5×10^6 /ml) were incubated as a suspension in serum-free RPMI-1640 medium containing the vehicle DMSO (<1%) or drug for 30 min at 27° C. after which vehicle or stimuli was added for the indicated time. The stimulating agent is solubilized in DMSO and appropriate vehicle controls were included in all experiments. The amount of stimuli was chosen from the linear portion of a concentration versus product curve usually representing 60-80% maximal stimulation over the indicated incubation time at 37° C. (A23187, 1 μM,(15 min). The reaction was terminated by reduction of pH through addition of citric acid and centrifugation (10 min, 400×g, 4° C.). Cell viability was monitored before and after experiments using trypan blue exclusion. The cell-free media was decanted and stored at -70° C. until analyzed. Prostaglandin E2 and LTC4 were directly measured in cell-free media using enzyme immunoassay (EIA) kits purchased from Caymen Chemical Co. (Ann Arbor, Mich.). Sample or standard dilutions were made with appropriate media and analyzed in triplicate. Results were obtained by extrapolation from a standard curve prepared in the media and expressed as pg or ng/ml of sample.

[2] = system: LTC4 release by human monocytes; assay: Assay (f): stimulated eicosanoid release by human monocytes, LTC4; assay type: cell-based; conditions: Monocyte, 0.25 h, A23187 1 μM, 15 min
Protocol: as §1, §2

[3] = system: TPA-induced Mouse Ear Inflammation; assay: Assay (g): TPA-induced mouse ear inflammation (ear edema and MPO); assay type: in vivo; conditions: for TPA % change in edema / change in MPO for TPA model: topically administered, doses 0.2 (dexamethasone), 0.1 (scalaradial), 0.3 (WY 50,295), dose unit not given
Protocol: (§3) Male Balb/c inbred mice were obtained from Charle River Breeding Laboratories (Kingston, N.Y.). Within a single experiment mice (22-25 g) were age-matched. These in vivo experiments typically involved use of 5-6 animals/group.
TPA (12-0-tetradecanoylphorbol 13-acetate) (Sigma Chemical Company) in acetone (4 mg/20 ml) was applied to the inner and outer surfaces of the left ear of BALB/c male mice. The thickness of both ears was then measured with a dial micrometer (Mitutoyo, Japan) at both 2 and 4 hours after treatment, and the data expressed as the change in thickness (10^-3 cm) between treated and untreated ears. […] After measuring the edema, the inflammed left ears were removed and stored at -70° C. until they were assayed for MPO (myeloperoxidase) activity where appropriate.
(§4) On the day of the assay, partially thawed ear tissues were minced and then homogenized (10% w/v) with a Tissumizer homogenizer (Tekmar Co.) in 50 mM phosphate buffer (pH 6) containing 0.5% HTAB. The tissue homogenates were taken through three cycles of freeze-thaw, followed by brief sonication (10 sec). The method of Bradley et al. was used with modifications as described. […] Supernatant MPO activity was quantified kinetically (change in absorbance measured over 3 min, sampled at 15-sec intervals) using a Beckman DU-7 spectrophotometer and a Kinetics Analysis package (Beckman Instruments, Inc.). One unit of MPO activity is defined as that degrading one micromole of peroxide per minute at 25° C.
Statistical analysis was done using Student's "t" test.

[4] = system: Arachidonic acid induced ear inflammation; assay: Assay (h): Arachidonic acid induced ear inflammation (ear edema and MPO); assay type: in vivo, mouse; conditions: for effect in the AA ear model (in words): at concentrations which were effective in the TPA ear model
Protocol: as §3, §4
Arachidonic acid is dissolved in acetone (ling/ear) to the left ear of BALB/c male mice. The thickness of both ears was measured with a constant pressure thickness guage 1 hour after treatment and the data expressed as the change in thickness between treated and untreated ears. Test compounds or vehicle are given at the time of AA applciation. The inflammatory cell infiltration is measured by MPO activity as described above in the TPA ear edema assay. After the edema measurements are made, the inflamed ears are removed and assayed for MPO activity.

[5] = topically administered, doses 0.2 (dexamethasone), 0.1 (scalaradial), 0.3 (WY 50,295), dose unit not given

Compound: O=C(O)c1ccccc1Oc1ccc(C(F)(F)F)cc1NS(=O)(=O)c1ccc2ccccc2c1 [Example 3, 2-[2-(2-Naphthylsulfonamido)-4-trifluoromethylphenoxy]benzoic acid]
- pIC50 [1]: < 4.52
- pIC50 [2]: 5.70

Compound: O=C(O)c1ccccc1Oc1ccccc1NS(=O)(=O)c1cc(C(F)(F)F)cc(C(F)(F)F)c1 [Example 10, 2-[2-[3,5-Bis(trifluoromethyl)phenylsulfonamido]phenoxy]benzoic acid]
- pIC50 [1]: < 4.00
- pIC50 [2]: 6.00

Compound: CCCCCCCCS(=O)(=O)Nc1ccccc1Oc1ccccc1C(=O)O [Example 11, 2-[2-(Octylsulfonamido)phenoxy]benzoic acid]
- pIC50 [1]: 4.70 to 5.00
- pIC50 [2]: 6.00

Compound: Cc1ccc(Oc2ccccc2C(=O)O)c(NS(=O)(=O)c2cc(C(F)(F)F)cc(C(F)(F)F)c2)c1 [Example 12, 2-[2-[3,5-bis(Trifluoromethyl)phenylsulfonamido]-4-methylphenoxy]benzoic acid]
- pIC50 [1]: < 4.52
- pIC50 [2]: 6.00

Compound: CCC(C)(C)c1ccc(Oc2ccc(C(F)(F)F)cc2NS(=O)(=O)c2cc(C(F)(F)F)cc(C(F)(F)F)c2)c(C(=O)O)c1 [Example 17, 2-[2-[3,5-Bis(trifluoromethyl)phenyl]sulfonamido-4-trifluoromethylphenoxy]-5-(1,1-dimethylpropyl)benzoic acid]
- pIC50 [1]: < 5.52
- pIC50 [2]: 7.30

Compound: CN(c1cc(C(F)(F)F)ccc1Oc1ccccc1C(=O)O)S(=O)(=O)c1cc(C(F)(F)F)cc(C(F)(F)F)c1 [Example 27, 2-[2-[3,5-bis(Trifluoromethyl)phenyl-N-methylsulfonamido]-4-trifluoromethylphenoxy]benzoic acid]
- inhibition in the MPO assay ([3]; mouse ear inflammation, MPO): positive inhibition
- response in the Edema aspects of this animal model ([3]; mouse ear inflammation, edema): not a significant response

Compound: C[C@H](C(=O)O)c1ccc2cc(OCc3ccc4ccccc4n3)ccc2c1 [WY 50,295]
- TPA % change in edema [3]: -18%
- change in MPO for TPA model [3]: -36
- effect in the AA ear model (in words) [4]: strongly inhibits inflammation
- AA change in edema [4, 5]: -50%

Compound: C[C@@H]1C[C@H]2[C@@H]3CCC4=CC(=O)C=C[C@]4(C)[C@@]3(F)[C@@H](O)C[C@]2(C)[C@@]1(O)C(=O)CO [dexamethasone]
- TPA % change in edema [3]: -50%
- change in MPO for TPA model [3]: -54
- effect in the AA ear model (in words) [4]: little or no effect
- AA change in edema [4, 5]: -10%
- change in MPO for AA [4, 5]: 0

Compound: CC(=O)O[C@H]1C[C@@H]2[C@@]3(C)CCCC(C)(C)[C@@H]3CC[C@@]2(C)[C@@H]2CC=C(C=O)[C@H](C=O)[C@@]12C [scalaradial]
- TPA % change in edema [3]: -46%
- effect in the AA ear model (in words) [4]: little or no effect
- AA change in edema [4, 5]: -11%
